In patent publication US10617719B2, “Deep sea water extract and use thereof” (Taiwan DOW Biotech Co., Ltd., priority 2015, dated 2020):

Tested on: Helicobacter pylori
Test: Inhibition of H. pylori growth on LB/sheep blood agar plates containing DSW extract
Type: cell-based, Helicobacter pylori (ten samples from different patients)
Conditions: same concentration of magnesium ions as the DSW extract (MgCl2 285 and 570 mg/L)
Source text: The present invention validates that the active components of the deep sea water extract having ability of inhibiting H. pylori growth are not associated with high magnesium, calcium ions and high hardness. […] Also, the present invention uses mass spectrometry to show a relational graph between the intensity value of the 1,070 component of the DSW extract and inhibiting H. pylori growth rate. In one embodiment, prepare the LB agar having the DSW extract with different hardness, the DSW extract with different concentration of EDTA or different concentration of MgCl2, follow by filtration through the 0.22 μm filter membrane or sterilization in an autoclave. Mix the LB agar with sheep blood, and pour the mixture into each 9-cm culture plate. Let each plate cool until its solid to form agar plate. For the LB agar having different concentration of MgCl2, take 2.85 mg MgCl2, add other nutrients and water to make 10 mL agar plate, the agar plate contains 285 mg/L MgCl2. According to above-mentioned procedure, the agar plats having different concentration of MgCl2 are 285 mg/L and 570 mg/L. The present invention also prepares the LB agar having the DSW extract with 1,200 ppm to 6,000 ppm and the 2,400 ppm DSW extract with different concentration of EDTA. The present invention identifies the active components of the DSW extract having the ability of inhibiting H. pylori growth. […]

## [Cl-].[Cl-].[Mg+2] [magnesium ions, MgCl2]
  ability of inhibiting H. pylori growth: does not have the ability of inhibiting H. pylori growth
